This passage reports IC50 results from ChEMBL document CHEMBL1134117, “Synthesis of substituted 5[H]phenanthridin-6-ones as potent poly(ADP-ribose)polymerase-1 (PARP1) inhibitors” (Bioorg Med Chem Lett, 2001).

Chain of Poly [ADP-ribose] polymerase 1 (P09874 whole entry): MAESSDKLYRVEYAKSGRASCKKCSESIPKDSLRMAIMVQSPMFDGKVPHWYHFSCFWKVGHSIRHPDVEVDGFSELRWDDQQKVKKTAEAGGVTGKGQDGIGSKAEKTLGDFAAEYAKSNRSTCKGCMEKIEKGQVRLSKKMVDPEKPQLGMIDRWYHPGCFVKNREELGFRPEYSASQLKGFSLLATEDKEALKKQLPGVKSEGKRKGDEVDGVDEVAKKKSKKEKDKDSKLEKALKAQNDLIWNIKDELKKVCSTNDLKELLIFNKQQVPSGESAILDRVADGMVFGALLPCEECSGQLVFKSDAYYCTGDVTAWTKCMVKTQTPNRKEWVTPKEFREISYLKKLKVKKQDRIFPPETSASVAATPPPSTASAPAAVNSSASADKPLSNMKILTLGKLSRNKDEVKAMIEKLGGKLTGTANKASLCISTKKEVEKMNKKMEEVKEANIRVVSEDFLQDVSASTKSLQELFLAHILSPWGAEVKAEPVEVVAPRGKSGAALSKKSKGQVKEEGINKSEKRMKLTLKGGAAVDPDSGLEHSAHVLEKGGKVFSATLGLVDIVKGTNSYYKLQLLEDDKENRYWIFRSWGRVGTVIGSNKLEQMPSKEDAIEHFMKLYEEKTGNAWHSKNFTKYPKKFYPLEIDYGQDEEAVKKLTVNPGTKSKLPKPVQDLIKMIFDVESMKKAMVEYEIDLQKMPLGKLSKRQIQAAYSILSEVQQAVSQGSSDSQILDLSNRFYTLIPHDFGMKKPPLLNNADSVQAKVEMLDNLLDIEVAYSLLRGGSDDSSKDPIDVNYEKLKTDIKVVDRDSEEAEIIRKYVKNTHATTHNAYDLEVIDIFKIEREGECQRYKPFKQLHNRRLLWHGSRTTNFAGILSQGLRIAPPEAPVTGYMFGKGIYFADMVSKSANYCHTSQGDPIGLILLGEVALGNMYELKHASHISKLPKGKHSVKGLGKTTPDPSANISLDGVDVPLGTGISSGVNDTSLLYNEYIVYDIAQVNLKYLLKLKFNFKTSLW

The assay concerns the target Poly [ADP-ribose] polymerase 1 (Homo sapiens, UniProt P09874). In words: Inhibitory concentration against purified recombinant human Poly (ADP-ribose) polymerase 1.
For `Nc1cc2[nH]c(=O)c3ccccc3c2cc1N`, the IC50 (as a rule, the concentration needed to halve the response being measured) amounted to 180 nM. As to `O=S(=O)(O)c1ccc2c(c1)nc(O)c1cc(S(=O)(=O)O)ccc12`, the IC50 was over 100000 nM. To `O=c1[nH]c2ccccc2c2ccccc12` belongs 520 nM; to `O=c1[nH]c2cc(S(=O)(=O)O)ccc2c2ccc(F)cc12`, 10 nM; to `Nc1ccc2[nH]c(=O)c3ccccc3c2c1`, 180 nM. On to `Cc1cccc2c(O)nc3cc(F)ccc3c12`, for which the IC50 was 92 nM. Regarding `O=C(O)c1cccc2c(O)nc3ccccc3c12`, the IC50 was over 60000 nM.

Consider `Cc1cccc2c(=O)[nH]c3cc(C(F)(F)F)c([N+](=O)[O-])cc3c12`, for which the IC50 turned out to be 136 nM.

Regarding `O=c1[nH]c2ccc([N+](=O)[O-])cc2c2ccccc12`, the IC50 turned out to be 156 nM. Consider `O=C(O)c1ccc2c(c1)[nH]c(=O)c1ccccc12`, for which the IC50 came to 57 nM.
